Measured values as given in US8716030B2, “Means for the inhibition of anti-β1-adrenergic receptor antibodies” (Julius-Maximillians-Universitat Wurzburg, A Germany …, priority 2005, dated 2014).
Entries after “also recorded” stand apart in the source; their conditions may differ. Read-outs that look alike come from different tables or passages of the source.

Tests used:
[1] = system: immunized anti-β1-positive cardiomyopathic rats; assay: Treatment of immune-cardiomyopathy in the human analogue rat model (therapy study); assay type: in vivo, Lewis CrlBR rats; conditions: therapy every 4 weeks after 8 months of immunization; FIGS. 8a and 8b
From the text: Lewis CrlBR rats were used as animals. […] Therapy was started after 8 months of regular (1× monthly) immunization. Monthly immunization was continued under therapy.
FIG. 8b is a diagram comparing the titer course of specific anti-ECII antibodies dependent on the different peptide variants used in the therapy arm of the study, whereby 25AA means the cyclic peptide Ic, 18AA means the shorter 18 amino-acid variant, and 16AA the shorter 16 amino-acid variant of the peptide. “Beta1 untreated” means immunized anti-1-positive cardiomyopathic not treated animals, “Beta1/pept. […] ECII-25AA, ECII-18AA, ECII-16AA” means immunized anti-1-positive cardiomyopathic animals treated with the 25AA-, 18AA-, or 16AA-peptide, respectively.
[…]. In general, the number of amino acids and thus the length of the primary structure appears to be crucial for the biological effects of the peptides of the present invention. A peptide-length equal to or above 26 amino acids (primary structure) is thought to be capable of stimulating directly (that is, without the use of carrier proteins) immunocompetent T-cells and thus provoke a paradoxal increase in anti-β1-receptor antibody production through T-cell mediated B-cell stimulation. Therefore, in the frame of the therapy study a limited number of pilot animals was treated with shorter peptide-variants of the 25 amino-acid peptide Ic, i.e. variants comprising either 18 or 16 amino-acids of the cyclic peptide. The used constructs were: ECII-18AA, cyclo([…] (SEQ ID NO:1); and ECII-16AA, cyclo([…] (SEQ ID NO.2). Upon administration of shorter peptide-variants of the present invention peptide every 4 weeks, a rapid decrease in the specific anti-beta 1-ECII antibody titer was equally observed within the first 6 months of therapy.

[2] = system: immunized anti-β1-positive cardiomyopathic rats; assay: as above; assay type: in vivo, Lewis CrlBR rats; conditions: for biological efficiency (reversal of the cardiomyopathic phenotype) / regression of LV dilatation: echocardiography; for biological efficiency (reversal of the cardiomyopathic phenotype): FIGS. 10d and 11d; for regression of LV dilatation: therapy study; for progression of the disease monitored by echocardiography: within the 12 months of treatment, compared with untreated antibody positive animals, FIGS. 10 and 11
[3] = system: rats immunized against the second β1-receptor loop (β1-ECII); assay: Prevention of immune-cardiomyopathy in the human analogue rat model
[4] = system: rats immunized against the second β1-receptor loop (β1-ECII); conditions: rat, in vivo
[5] = system: CD4+ T-cells; assay: T-cell recall assay with CD4+ T-cells from immunized animals (FIG. 19); assay type: cell-based, rat; conditions: T-cells from prophylactically or therapeutically treated immunized animals; peptide 10 μg/ml, FP 1.0 or 0.1 μg/mL
Protocol: “Cont.” means the respective not immunized control animals. The assays were carried out according to Schmidt J. et al. (2003) J Neuroimmunol. 140, 143-152. In brief, to purify CD4+ T-cells from the splenic cell preparations, B-cells and CD8+ T-cells were depleted by commercially available magnetic beads (MACS®), yielding a purity of CD4+ cells >85%. 1×10^5 CD4+ of the purified T-cells were then co-incubated in 96-well plates with 1×10^6 irradiated thymic antigen presenting cells (prepared from a younger rat). Reagents added in the different assays (conditions) were: 10 μg/ml glutathion-S-transferase (GST), 2 μg/ml Concanavalin A (ConA, positive control), 10 μg/ml 25AA-ECII peptide (Pept.25AA), and GST/beta1-ECII fusion protein (FP) at a concentration of 1.0 and 0.1 μg/ml, respectively. The measured T-cell reactivities were normalized to the respective T-cell reactivities obtained with 10 μg/ml purified protein derivative (PPD) carried out in parallel under each condition. After 48 hours of incubation, 50% of the supernatants were removed and replaced by fresh medium. The cells were then pulsed with 1.25 μCi/well [^3H]-thymidine and further incubated for 16 hours before the cells were harvested, and the DNA-incorporated radioactivity was measured using a beta-plate.

Compound | circulating specific anti-β1-ECII antibody titer [1] | biological efficiency (reversal of the cardiomyopathic phenotype) [2] | regression of LV dilatation [2] | specific anti-β1-ECII antibody-titer ([3]; 1 mg/kg s.c. or i.v. every 4 weeks, prophylactic, FIG. 4) | immune response upon antigen boost every 4 weeks ([3]; from the fifth month on, FIG. 4) | heart rate [4] | progression of the disease monitored by echocardiography [2] | stimulation and proliferation of CD4+ T-cells [5] | impact on heart rate and blood pressure ([3]; FIG. 12 and FIG. 13, examples 3 and 4 (prevention and therapy study)) | heart rate ([3]; prophylactic treatment, FIGS. 5 and 12) | cardiac β1-receptor density (down-/upregulation) ([2]; FIGS. 17 and 18 (prevention and therapy study))
cyclo(Ala-Asp-Glu-Ala-Arg-Arg-Cys-Tyr-Asn-Asp-Pro-Lys-Cys-Cys-Asp-Phe-Val-Gln) (cyclo(ADEARRCYNDPKCCDFVQ); not fully specified; printed as cyclo(Ala-Asp-Glu-Ala-Arg-Arg-Cys-Tyr-Asn-Asp-Pro-Lys-Cys-Cys-Asp-Phe-Val-Gln); cysteine pairing not given here) [ECII-18AA] | reduced by about a same extent | reversal of the cardiomyopathic phenotype | significant regression of LV dilatation |  |  |  |  |  |  |  | 
cyclo(Ala-Arg-Ala-Glu-Ser-Asp-Glu-Ala-Arg-Arg-Cys-Tyr-Asn-Asp-Pro-Lys-Cys-Cys-Asp-Phe-Val-Thr-Asn-Arg-Gln) (cyclo(ARAESDEARRCYNDPKCCDFVTNRQ); not fully specified; printed as cyclo(Ala-Arg-Ala-Glu-Ser-Asp-Glu-Ala-Arg-Arg-Cys-Tyr-Asn-Asp-Pro-Lys-Cys-Cys-Asp-Phe-Val-Thr-Asn-Arg-Gln); cysteine pairing not given here) [peptide Ic] | surprisingly rapid decrease; also recorded: reduced by about a same extent | reversal of the cardiomyopathic phenotype | significant regression of LV dilatation | prevented a further increase of the specific anti-β1-ECII antibody-titer with the titer even continuously declining | no more immune response | did neither decrease heart rate | no progression | neither treatment group resulted in a significant stimulation |  |  | 
cyclo(Ala-Arg-Arg-Cys-Tyr-Asn-Asp-Pro-Lys-Cys-Cys-Asp-Phe-Val-Tyr-Gln) (cyclo(ARRCYNDPKCCDFVYQ); not fully specified; printed as cyclo(Ala-Arg-Arg-Cys-Tyr-Asn-Asp-Pro-Lys-Cys-Cys-Asp-Phe-Val-Tyr-Gln); cysteine pairing not given here) [ECII-16AA] | remain stable instead of decreasing | ambiguous results in 2 treated rats with one animal having complete reversal of the cardiomyopathic phenotype, the other animal progressive LV dilatation and dysfunction | obviously being less effective |  |  |  | at least the progression of the disease was stopped or stabilized |  |  |  | 
CC(C)NCC(O)COc1ccc(COCCOC(C)C)cc1 (stereo not drawn) [bisoprolol, reference compound] | had even higher beta1-antibody titers |  | could not be reversed completely |  |  |  | no progression |  | significantly reduced both heart rate and blood pressure | significant reduction in heart rate | β1-receptor upregulation
